Reference: publication PMC4357465, “Tool Compounds Robustly Increase Turnover of an Artificial Substrate by Glucocerebrosidase in Human Brain Lysates” (PLoS ONE, 2015)
Where “and” joins values, the source holds several entries; their conditions need not be identical. Equal values may be shown once.

Key:
Type in all cases: biochemical
[1] = tested on: GBA1 in mouse brain lysates; assay: GBA1 tissue assay, 4MUG turnover in mouse brain lysates; settings: mouse brain lysate 10 μg, without sodium taurocholate
Description: (§1) Human cortex was acquired from brain banks (Tissue Solutions: http://www.tissue-solutions.com; Proteogenex: http://www.proteogenex.com). Human cortex samples were obtained from deceased aged Caucasian subjects without any diagnosis of neurodegenerative disorders. Mouse brain was obtained from 4–7 month old C57BL/6J mice. All mouse experiments were performed in accordance with the specifications of both the National Institutes of Health Guide for the Care and Use of Laboratory Animals, studies were approved by Pfizer’s Internal Animal Care and Use Committee (IACUC). […] Samples were then centrifuged at 20,000g for 15 minutes at 4°C. Supernatant was collected, and used for activity assays and Western blots. Protein concentration was determined using the Pierce BCA protein assay kit. Tissue lysates and pellets were stored at -80°C until use. For enzymatic activity assays, lysates were subjected only to one free-thaw cycle. Independent replicates were obtained using brain lysates from either different human subjects or different mice. […] Brain tissue lysates were diluted to 0.4 μg/ μl of protein in the same homogenization buffer, as described above. 25 μl of diluted lysate was added to the plate (Costar, 7200567). Lysates were then incubated on ice in the presence or absence of a compound for 30 minutes. 100 μl of assay buffer was then added to the plate. The same assay buffer was used as in the cell free/recombinant experiments and processed as described above.

[2] = molecular target: T1, GBA1 in mouse brain lysates (Mus musculus, UniProt P17439); assay: as above; settings: mouse brain lysate 10 μg, with sodium taurocholate
T1 construct: Mouse brain was obtained from 4–7 month old C57BL/6J mice; from tissue; host or cells: brain of C57BL/6J mice
T1 sequence (P17439 20-515): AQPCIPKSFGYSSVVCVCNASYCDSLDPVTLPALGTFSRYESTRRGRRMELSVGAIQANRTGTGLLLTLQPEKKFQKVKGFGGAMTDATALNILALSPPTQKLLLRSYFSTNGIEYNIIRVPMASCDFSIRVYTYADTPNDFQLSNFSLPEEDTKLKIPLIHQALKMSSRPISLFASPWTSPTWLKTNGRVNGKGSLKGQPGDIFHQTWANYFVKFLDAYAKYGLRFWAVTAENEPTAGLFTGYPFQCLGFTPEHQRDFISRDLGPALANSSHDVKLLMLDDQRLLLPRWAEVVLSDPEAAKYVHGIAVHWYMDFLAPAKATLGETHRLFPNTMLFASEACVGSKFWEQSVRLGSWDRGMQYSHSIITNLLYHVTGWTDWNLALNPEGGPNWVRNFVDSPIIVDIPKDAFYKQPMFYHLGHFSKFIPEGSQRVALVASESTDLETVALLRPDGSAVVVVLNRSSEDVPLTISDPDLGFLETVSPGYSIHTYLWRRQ
Description: as §1

[3] = molecular target: T2, GBA1 in lysates from human cortex (Homo sapiens, UniProt P04062); assay: GBA1 tissue assay, 4MUG turnover in human cortex lysates; settings: human cortex lysate 10 μg, with sodium taurocholate
T2 construct: Human cortex samples were obtained from deceased aged Caucasian subjects without any diagnosis of neurodegenerative disorders; tissue Tissue Solutions; Proteogenex; host or cells: human cortex (post mortem)
T2 sequence (P04062 40-536): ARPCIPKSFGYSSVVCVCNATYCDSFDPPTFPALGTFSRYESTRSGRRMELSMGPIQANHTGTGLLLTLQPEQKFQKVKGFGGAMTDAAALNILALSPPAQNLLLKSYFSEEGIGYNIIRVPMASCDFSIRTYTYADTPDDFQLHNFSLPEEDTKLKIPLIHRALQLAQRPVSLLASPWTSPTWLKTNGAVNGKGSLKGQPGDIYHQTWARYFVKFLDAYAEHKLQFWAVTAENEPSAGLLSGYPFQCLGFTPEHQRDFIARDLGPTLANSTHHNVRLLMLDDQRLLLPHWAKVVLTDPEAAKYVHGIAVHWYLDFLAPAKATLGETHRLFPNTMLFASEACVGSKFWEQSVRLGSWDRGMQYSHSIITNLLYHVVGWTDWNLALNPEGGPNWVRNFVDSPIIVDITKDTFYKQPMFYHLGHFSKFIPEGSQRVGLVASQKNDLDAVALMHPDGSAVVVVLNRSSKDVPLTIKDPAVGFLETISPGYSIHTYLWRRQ
Description: (§2) Brain lysates were prepared by mechanical homogenization of mouse brain and human cortex in 10x weight/volume of the homogenization buffer used in the GBA1 enzymatic cell-free assay (250 mM Sucrose, 10 mM Tris pH = 7.5, 1 mM EDTA, 0.25% Triton X-100 solution, protease inhibitors, phosphatase inhibitors I and III, PMSF). Human cortex was acquired from brain banks (Tissue Solutions: http://www.tissue-solutions.com; Proteogenex: http://www.proteogenex.com). Human cortex samples were obtained from deceased aged Caucasian subjects without any diagnosis of neurodegenerative disorders. Mouse brain was obtained from 4–7 month old C57BL/6J mice. All mouse experiments were performed in accordance with the specifications of both the National Institutes of Health Guide for the Care and Use of Laboratory Animals, studies were approved by Pfizer’s Internal Animal Care and Use Committee (IACUC).
(§3) Prior to 30 min lysis on ice, human brain samples were also sonicated for 15 seconds as this step was needed to fully extract GBA1 (data not shown). Samples were then centrifuged at 20,000g for 15 minutes at 4°C. Supernatant was collected, and used for activity assays and Western blots. Protein concentration was determined using the Pierce BCA protein assay kit. Tissue lysates and pellets were stored at -80°C until use. For enzymatic activity assays, lysates were subjected only to one free-thaw cycle. Independent replicates were obtained using brain lysates from either different human subjects or different mice.
(§4) GBA1 activity in tissues was measured using the assay conditions described in the previous section. 10 μg of protein/well was used for the activity experiments, unless stated otherwise. Brain tissue lysates were diluted to 0.4 μg/ μl of protein in the same homogenization buffer, as described above. 25 μl of diluted lysate was added to the plate (Costar, 7200567). Lysates were then incubated on ice in the presence or absence of a compound for 30 minutes. 100 μl of assay buffer was then added to the plate. The same assay buffer was used as in the cell free/recombinant experiments and processed as described above.

[4] = tested on: GBA1 in lysates from human cortex; assay: as above; settings: human cortex lysate 10 μg, without sodium taurocholate
Description: as §2, §3, §4

| % inhibition: + NaTc ([2]; 1mM) | % inhibition + NaTc ([3]; 1mM) | inhibition at 1 µM ([2]; 1 μM, read-out: % inhibition: + NaTc) [%] | % inhibition + NaTc ([3]; 1 μM) | inhibition at 1 µM ([3]; 1 μM, read-out: % inhibition + NaTc) [%] | Compound | % inhibition: - NaTc ([1]; 1mM) | % inhibition - NaTc ([4]; 1mM) | % inhibition: - NaTc ([1]; 1 μM) | % inhibition - NaTc ([4]; 1 μM) [%] | % inhibition - NaTc ([4]; 1 μM, listed as isofagomine) |
| --- | --- | --- | --- | --- | --- | --- | --- | --- | --- | --- |
| 82% ± 1% | 86 ± 4% and ~ 90% | – | – | – | O[C@H]1[C@H](O)[C@@H](O)[C@@H]2O[C@@H]2[C@@H]1O [CBE] | 32% ± 4% | 31 ± 8% and ~ 30% | – | – | – |
| – | – | 82 | ~ 90% | 92 ± 2 | OC[C@H]1CNC[C@@H](O)[C@@H]1O [Isofagomine, isofagomine] | – | – | 21% ± 3% | 27 ± 4 | ~ 30% |
